Reference: patent US8940798B2, “Compounds useful for treating and/or preventing disease-associated bone loss” (Centre National de al Recherche Scientifique (CNRS), priority 2011, dated 2015)

Legend:
osteoclasts (OCs) [1] = assay: Bone resorption assay, CTx concentration in medium of OCs on bovine bone slices; assay type: cell-based, mouse
Source text: FIGS. 5A-5H: Inhibition of bone resorption by an inhibitor of Rac1 activation by Dock5. (FIG. 5A) Principle of the yeast exchange assay used to identify inhibitors of Dock5 exchange activity. Wild type Rac1 is fused to LexA DNA binding domain (LexA) and its effector Kinectin (Kin) to GAL4 activation domain (GAD). Expression of Dock5-DHR2 activates Rac1, which binds to kinectin, leading to the expression of his3 and then yeast […] for histidine. Inhibitors of Dock5-DHR2 revert Rac1 activation. (FIG. 5B) Growth curves of yeasts expressing Rac1 and Kinectin with (open triangles) and without (dots) Dock5-DHR2, in medium complemented (plain lines) or not (dotted lines) with histidine. (FIG. 5C) Structure of N-(3,5-dichlorophenyl)benzensulfonamide (C21). (FIG. 5D) Western blots showing total and GTPbound Rac1 (upper panels) and GFP and GFP-fused Dock5-DHR2 in extracts of 293T cells treated for 1 hour with the indicated concentrations of C21 in the presence of 1% DMSO. […] (FIG. 5F) Number of OCs (OC) after a 24-hour incubation with the indicated concentrations of C21, expressed as a % of DMSO control (0 μM C21). […] Well image was reconstituted and resorbed areas were measured using MetaMorph 7.0 software (Molecular Devices). […] After 2 days, CTx concentrations were measured using Crosslap (IDS Nordic Bioscience). […]

osteoclasts (OCs) [2] = assay: OC survival assay (number of OCs after 24-hour incubation); assay type: cell-based; conditions: number of OCs as % of DMSO control
Source text: FIGS. 5A-5H: Inhibition of bone resorption by an inhibitor of Rac1 activation by Dock5. (FIG. 5A) Principle of the yeast exchange assay used to identify inhibitors of Dock5 exchange activity. Wild type Rac1 is fused to LexA DNA binding domain (LexA) and its effector Kinectin (Kin) to GAL4 activation domain (GAD). Expression of Dock5-DHR2 activates Rac1, which binds to kinectin, leading to the expression of his3 and then yeast […] for histidine. Inhibitors of Dock5-DHR2 revert Rac1 activation. (FIG. 5B) Growth curves of yeasts expressing Rac1 and Kinectin with (open triangles) and without (dots) Dock5-DHR2, in medium complemented (plain lines) or not (dotted lines) with histidine. […] (FIG. 5F) Number of OCs (OC) after a 24-hour incubation with the indicated concentrations of C21, expressed as a % of DMSO control (0 μM C21). […]
Preparations were mounted in Mowiol 40-88 (Sigma) and imaged with Zeiss Axioimager Z2 microscope with Coolsnap HQ2 camera for fluorescence and Coolsnap color Cf camera using Zeiss 40× PLAN-NEOFLUAR 1.3 oil DIC or Zeiss 20× PLAN-APOCHROMAT 0.8 or Zeiss 10× EC PLAN-NEOFLUAR 0.3. […] OC circularity was measured using ImageJ. OCs were counted manually in 96-well plates stained to reveal DNA and TRAP activity, except in FIG. 5F where they were counted automatically using a Cellomics Arrayscan VTI (Thermo Scientific). […]

## O=S(=O)(Nc1cc(Cl)cc(Cl)c1)c1ccccc1 [C21, N-(3,5-dichlorophenyl)benzenesulfonamide]
Osteoclasts (OCs) [1]; 25 μM C21, OCs on bone
  Bone resorption, CTx concentration in the culture medium of OCs: efficiently inhibits
Osteoclasts (OCs) [1]; dose response experiment
  Bone resorption by OCs in vitro, CTx production per OC, dose response: efficiently inhibits bone resorption
Osteoclasts (OCs) [2]
  Concentrations provoking OC death: above 25 μM
